The source made the active and inactive calls. No cut-off for these calls is given here.
system: not listed separately; assay: Inhibition of GST-tagged SARS-CoV-2 main protease expressed in Escherichia coli BL21 competent cells using DABCYL-Val-Asn-Ser-Thr-Leu-Gln-Ser-Gly-Leu-Arg-Lys-EDANS as substrate measured every 10 mins for 1 hr by FRET assay; set-up: species or system Severe acute respiratory syndrome coronavirus 2; settings: not given

Structure (SMILES) | IC50
O=c1c2ccccc2[se]n1-c1cccc(C(F)(F)F)c1 | 2.77 µM
COc1ccc(Cl)cc1-n1[se]c2ccccc2c1=O | > 10 µM
O=c1c2ccccc2[se]n1-c1ccc(Br)cc1 | 2.77 µM
COc1ccc(F)cc1-n1[se]c2ccccc2c1=O | 3.3 µM
COc1ccc2c(=O)n(-c3ccccc3)[se]c2c1 | 6.4 µM
O=c1c2ccccc2[se]n1-c1cc(Cl)cc(Cl)c1 | 0.64 µM
O=c1c2ccccc2[se]n1Cc1ccc(F)cc1 | 1 µM
COc1cc(F)ccc1-n1[se]c2ccccc2c1=O | 1.8 µM
O=c1c2ccccc2[se]n1-c1c(F)cccc1F | 2.09 µM
CSc1ccccc1-n1[se]c2ccccc2c1=O | > 10 µM
O=c1c2ccccc2[se]n1-c1ccc(C(F)(F)F)cc1 | 0.9 µM
Cc1ccc(-n2[se]c3ccccc3c2=O)cc1C | > 10 µM
O=c1c2ccccc2[se]n1-c1ccc(Cl)cc1OC(F)(F)F | > 10 µM
O=c1c2ccccc2[se]n1Cc1ccc(C(F)(F)F)cc1 | > 10 µM
CCCCCCCCn1[se]c2ccccc2c1=O | 2.69 µM
N#Cc1cccc(-n2[se]c3ccccc3c2=O)c1 | 0.38 µM
COc1ccc(Cn2[se]c3ccccc3c2=O)c(OC)c1 | 0.61 µM
COc1ccc(Cn2[se]c3ccccc3c2=O)cc1 | > 10 µM
O=c1c2ccccc2[se]n1-c1ccc(F)cc1C(F)(F)F | > 10 µM
COc1cccc(-n2[se]c3ccccc3c2=O)c1 | > 10 µM
Cc1ccc(-n2[se]c3ccccc3c2=O)cc1 | 2.29 µM
CCc1ccc(-n2[se]c3ccccc3c2=O)cc1 | 6.18 µM
O=c1c2ccccc2[se]n1-c1ccc(F)cc1 | 2.78 µM
CCCCCn1[se]c2ccccc2c1=O | > 10 µM
O=c1c2ccccc2[se]n1-c1cccc(Cl)c1 | 0.68 µM
O=c1c2ccccc2[se]n1-c1ccccc1F | > 10 µM
Cc1ccccc1-n1[se]c2ccccc2c1=O | 7.43 µM
CCCCCCCn1[se]c2ccccc2c1=O | 5.56 µM
COc1ccc(-n2[se]c3ccccc3c2=O)cc1 | 1.25 µM

system: SARS-CoV-2; assay: Antiviral activity against SARS-CoV-2 USA_WA1/2020 infected in human Calu-3 cells assessed as reduction in viral RNA replication pretreated for 1 hr with compound followed by viral infection for 1.5 hrs then followed by washout the cells and re-incubated with compounds for 24 hrs by qRT-PCR method; type: functional, organism-based; settings: Severe acute respiratory syndrome coronavirus 2, USA_WA1/2020, Calu-3

Structure (SMILES) | EC50
O=c1c2ccccc2[se]n1-c1cccc(C(F)(F)F)c1 | 1.3 µM
O=c1c2ccccc2[se]n1-c1ccc(Br)cc1 | 15.7 µM
CCC(CC)COC(=O)[C@H](C)NP(=O)(OC[C@H]1O[C@@](C#N)(c2ccc3c(N)ncnn23)[C@H](O)[C@@H]1O)Oc1ccccc1 (single isomer, unassigned) | 0.8 µM
O=c1c2ccccc2[se]n1-c1ccccc1 [EBSELEN] | 5 µM
O=c1c2ccccc2[se]n1-c1ccc(C(F)(F)F)cc1 | 2.8 µM
CCc1ccc(-n2[se]c3ccccc3c2=O)cc1 | 8.8 µM

system: Severe acute respiratory syndrome coronavirus 2; assay: (§1) Reversible covalent inhibition of SARS-CoV-2 main protease expressed in Escherichia coli BL21 competent cells using DABCYL-Val-Asn-Ser-Thr-Leu-Gln-Ser-Gly-Leu-Arg-Lys-EDANS as fluorogenic substrate assessed as reduction in product formation at 1 to 10 uM preincubated for 30 mins in presence of DTT by dilution assay; settings: dose 1-10 µM

Structure (SMILES) | inhibition
O=c1c2ccccc2[se]n1-c1cc(Cl)cc(Cl)c1 | Active
COc1ccc(Cn2[se]c3ccccc3c2=O)c(OC)c1 | Active
O=c1c2ccccc2[se]n1-c1cccc(Cl)c1 | Active

system: Severe acute respiratory syndrome coronavirus 2; assay: as §1, with “at” for “at 1 to”, “absence” for “presence”, “assay relative to control” for “assay”; settings: not given

Structure (SMILES) | inhibition
O=c1c2ccccc2[se]n1-c1ccccc1 [EBSELEN] | 91%
O=c1c2ccccc2[se]n1-c1ccc(C(F)(F)F)cc1 | 48%
N#Cc1cccc(-n2[se]c3ccccc3c2=O)c1 | 64%

system: Severe acute respiratory syndrome coronavirus 2; assay: as §1, with “at” for “at 1 to”, “assay relative to control” for “assay”; settings: not given

Structure (SMILES) | inhibition
O=c1c2ccccc2[se]n1-c1ccc(C(F)(F)F)cc1 | 43%

system: Severe acute respiratory syndrome coronavirus 2; assay: as §1, with “1” for “1 to 10”, “incubated” for “preincubated”, “mins” for “mins in presence of DTT”, “assay relative to control” for “assay”; settings: not given

Structure (SMILES) | inhibition
O=c1c2ccccc2[se]n1-c1ccccc1 [EBSELEN] | 65%
N#Cc1cccc(-n2[se]c3ccccc3c2=O)c1 | 29%

system: Severe acute respiratory syndrome coronavirus 2; assay: Competitive inhibition of SARS-CoV-2 main protease assessed as inhibitor concentration dependent Km with constant Vmax at 0.5 to 10 uM using varying concentrations of DABCYL-KTSAVLQ1SGFRKM-E(EDANS)-NH2 as substrate by double reciprocal plot analysis; settings: dose 0.5-10 µM

Structure (SMILES) | inhibition
O=c1c2ccccc2[se]n1-c1ccccc1 [EBSELEN] | Active
O=c1c2ccccc2[se]n1-c1ccc(C(F)(F)F)cc1 | Active

system: not listed separately; assay: Distribution coefficient, logD of compound at pH 7.4 by shake flask method; type: physicochemical; settings: octanol/water

Structure (SMILES) | logD
O=c1c2ccccc2[se]n1-c1cccc(C(F)(F)F)c1 | 3.18
O=c1c2ccccc2[se]n1-c1ccc(Br)cc1 | 1.46
O=c1c2ccccc2[se]n1-c1cc(Cl)cc(Cl)c1 | 1.67
O=c1c2ccccc2[se]n1-c1ccccc1 [EBSELEN] | 0.92
O=c1c2ccccc2[se]n1-c1ccc(C(F)(F)F)cc1 | 3.19
N#Cc1cccc(-n2[se]c3ccccc3c2=O)c1 | 1.45
COc1ccc(Cn2[se]c3ccccc3c2=O)c(OC)c1 | 0.85
CCc1ccc(-n2[se]c3ccccc3c2=O)cc1 | 2.87
O=c1c2ccccc2[se]n1-c1cccc(Cl)c1 | 1.53

system: Severe acute respiratory syndrome coronavirus 2; assay: as §1, with “at” for “at 1 to”, “incubated” for “preincubated”, “mins” for “mins in presence of DTT”, “assay relative to control” for “assay”; settings: not given

Structure (SMILES) | inhibition
O=c1c2ccccc2[se]n1-c1ccccc1 [EBSELEN] | 89%
O=c1c2ccccc2[se]n1-c1ccc(C(F)(F)F)cc1 | 86%
N#Cc1cccc(-n2[se]c3ccccc3c2=O)c1 | 94%

system: Severe acute respiratory syndrome coronavirus 2; assay: as §1, with “1” for “1 to 10”, “assay relative to control” for “assay”; settings: not given

Structure (SMILES) | inhibition
O=c1c2ccccc2[se]n1Cc1ccc(F)cc1 | 53%

system: not listed separately; assay: Toxicity in human iPSC derived lung organoids infected with SARS-CoV-2 USA_WA1/2020 measured after 24 hrs; settings: not given

Structure (SMILES) | Activity
O=c1c2ccccc2[se]n1-c1cccc(C(F)(F)F)c1 | Non-Toxic

system: not listed separately; assay: Inhibition of SARS-CoV-2 main protease expressed in Escherichia coli using MCA-AVLQSGFR-Lys(Dnp)-Lys-NH2 as substrate by FRET assay; set-up: species or system Severe acute respiratory syndrome coronavirus 2; settings: not given

Structure (SMILES) | IC50
O=C[C@H](C[C@@H]1CCNC1=O)NC(=O)[C@H](Cc1cccc(F)c1)NC(=O)c1cc2ccccc2[nH]1 | 0.04 µM

system: SARS-CoV-2; assay: not given; type: functional, organism-based, Vero E6; settings: Severe acute respiratory syndrome coronavirus 2, USA_WA1/2020, Vero C1008

Structure (SMILES) | EC50
O=c1c2ccccc2[se]n1-c1cccc(C(F)(F)F)c1 | 0.8 µM
COc1ccc(Cl)cc1-n1[se]c2ccccc2c1=O | > 20 µM
O=c1c2ccccc2[se]n1-c1ccc(Br)cc1 | 5.2 µM
CCC(CC)COC(=O)[C@H](C)NP(=O)(OC[C@H]1O[C@@](C#N)(c2ccc3c(N)ncnn23)[C@H](O)[C@@H]1O)Oc1ccccc1 (single isomer, unassigned) | 1.8 µM
COc1ccc(F)cc1-n1[se]c2ccccc2c1=O | > 20 µM
COc1ccc2c(=O)n(-c3ccccc3)[se]c2c1 | 11.2 µM
O=c1c2ccccc2[se]n1-c1cc(Cl)cc(Cl)c1 | 18.2 µM
O=c1c2ccccc2[se]n1Cc1ccc(F)cc1 | > 20 µM
COc1cc(F)ccc1-n1[se]c2ccccc2c1=O | > 20 µM
O=c1c2ccccc2[se]n1-c1c(F)cccc1F | > 20 µM
CSc1ccccc1-n1[se]c2ccccc2c1=O | > 20 µM
O=c1c2ccccc2[se]n1-c1ccccc1 [EBSELEN] | > 20 µM
O=c1c2ccccc2[se]n1-c1ccc(C(F)(F)F)cc1 | 11.2 µM
Cc1ccc(-n2[se]c3ccccc3c2=O)cc1C | 12.2 µM
O=c1c2ccccc2[se]n1-c1ccc(Cl)cc1OC(F)(F)F | > 20 µM
O=c1c2ccccc2[se]n1Cc1ccc(C(F)(F)F)cc1 | 11.2 µM

Structure (SMILES) | EC50
CCCCCCCCn1[se]c2ccccc2c1=O | > 20 µM
N#Cc1cccc(-n2[se]c3ccccc3c2=O)c1 | 2 µM
COc1ccc(Cn2[se]c3ccccc3c2=O)c(OC)c1 | 26.5 µM
COc1ccc(Cn2[se]c3ccccc3c2=O)cc1 | > 20 µM
O=c1c2ccccc2[se]n1-c1ccc(F)cc1C(F)(F)F | > 20 µM
COc1cccc(-n2[se]c3ccccc3c2=O)c1 | 15.1 µM
Cc1ccc(-n2[se]c3ccccc3c2=O)cc1 | 15.4 µM
CCc1ccc(-n2[se]c3ccccc3c2=O)cc1 | 6.5 µM
O=c1c2ccccc2[se]n1-c1ccc(F)cc1 | 16.7 µM
CCCCCn1[se]c2ccccc2c1=O | > 20 µM
O=c1c2ccccc2[se]n1-c1cccc(Cl)c1 | 17.4 µM
O=c1c2ccccc2[se]n1-c1ccccc1F | > 20 µM
Cc1ccccc1-n1[se]c2ccccc2c1=O | 20.7 µM
CCCCCCCn1[se]c2ccccc2c1=O | 17.3 µM
COc1ccc(-n2[se]c3ccccc3c2=O)cc1 | 1.7 µM

system: SARS-CoV-2; assay: microbe, parasite or virus in culture; settings: Severe acute respiratory syndrome coronavirus 2, Vero C1008, 24 h

Structure (SMILES) | EC50
O=C[C@H](C[C@@H]1CCNC1=O)NC(=O)[C@H](Cc1cccc(F)c1)NC(=O)c1cc2ccccc2[nH]1 | 0.72 µM

system: Severe acute respiratory syndrome coronavirus 2; assay: as §1, with “1” for “1 to 10”, “absence” for “presence”, “assay relative to control” for “assay”; settings: not given

Structure (SMILES) | inhibition
O=c1c2ccccc2[se]n1-c1ccc(C(F)(F)F)cc1 | 44%

Source: ChEMBL document CHEMBL5042483, “Discovery and Mechanism of SARS-CoV-2 Main Protease Inhibitors” (J Med Chem, 2022)
